{
  "source": "patent US20130296311A1",
  "about": "“INHIBITORS OF HCV NS5A” (PRESIDIO PHARMACEUTICALS, INC., priority 2010, published 2013)",
  "data": [
    {"tested_on": "HCV 1b_Huh-Luc/Neo-ET cell line persistently expressing a bicistronic genotype 1b replicon in Huh 7 cells", "experiment": "HCV replicon assay (luciferase readout, 72 h)", "type": "cell-based, HCV genotype 1b", "details": "Hepatitis C virus, Huh-7, 72 h, read-out: Inhibition of HCV genotype 1b", "how_it_was_run": "(§1)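 Huh 7 cells carrying a bicistronic genotype 1b luciferase/neo replicon received compound in triplicate the day after plating. After 72 h, replicon levels were read as Bright-Glo luciferase activity, expressed as % of control; EC50 was fitted with a four-parameter logistic and determined several times.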", "units": {"EC50": "nM"}, "values": [
      {"smiles": "CC(C)(C)OC(=O)N[C@@H](C(=O)N1CCC[C@H]1c1ncc(-c2ccc(C#Cc3ccc4nc([C@@H]5CCCN5C(=O)[C@H](NC(=O)OC(C)(C)C)c5ccccc5)[nH]c4c3)cc2)[nH]1)c1ccccc1", "note": "[Compound 801]", "EC50": "< 1"},
      {"smiles": "CC(C)[C@H](NC(=O)N1CCOCC1)C(=O)N1CCC[C@H]1c1ncc(-c2ccc(C#Cc3ccc(-c4cnc([C@@H]5CCCN5C(=O)[C@@H](NC(=O)N5CCOCC5)C(C)C)[nH]4)cc3)cc2)[nH]1", "note": "[Compound 285]", "EC50": "> 1000"},
      {"smiles": "C[C@@H](c1ncc(-c2ccc(C#Cc3ccc(-c4cnc([C@@H]5CCCN5C(=O)[C@H](NC(=O)C5CC5)c5ccccc5)[nH]4)cc3)cc2)[nH]1)N(C)C(=O)[C@H](NC(=O)C1CC1)c1ccccc1", "note": "[Compound 278]", "EC50": "< 1"},
      {"smiles": "COC(=O)N[C@H](C(=O)N1CCC[C@H]1c1ncc(-c2ccc(C#Cc3ccc4nc([C@@H]5CCCN5C(=O)[C@H](NC(=O)OC)c5ccccc5)[nH]c4c3)cc2)[nH]1)C(C)C", "note": "[Compound 1023]", "EC50": "< 1"},
      {"smiles": "COC(=O)N[C@H](C(=O)N1CCC[C@H]1c1ncc(-c2ccc(C#Cc3ccc4nc([C@@H]5CCCN5C(=O)[C@@H](NC(=O)OC)[C@H](C)O)[nH]c4c3)cc2)[nH]1)[C@H](C)O", "note": "[Compound 1031]", "EC50": "< 1"},
      {"smiles": "C[C@@H](NC(=O)OC(C)(C)C)C(=O)N1CCC[C@H]1c1ncc(-c2ccc(C#Cc3ccc(-c4cnc([C@@H]5CCCN5C(=O)[C@@H](C)NC(=O)OC(C)(C)C)[nH]4)cc3)cc2)[nH]1", "note": "[Compound 151]", "EC50": "10 to 999"},
      {"smiles": "COC(=O)N[C@@H](C(=O)N1CCC[C@H]1c1ncc(-c2ccc(C#Cc3cnc([C@@H]4CCCN4C(=O)[C@@H](c4ccccc4)N(C)C)[nH]3)cc2)[nH]1)c1ccccc1", "note": "[Compound 128]", "EC50": "< 1"},
      {"smiles": "COC(=O)N[C@H](C(=O)N1CCC[C@H]1c1ncc(-c2ccc(C#Cc3ccc(-c4cnc([C@@H]5CCCN5C(=O)[C@@H](C(C)C)N(C)C)[nH]4)cc3)cc2)[nH]1)C(C)C", "note": "[Compound 954]", "EC50": "1 to 9.9"},
      {"smiles": "COC(=O)N[C@H](C(=O)N1CCC[C@H]1c1ncc(-c2ccc(C#Cc3ccc(-c4cnc([C@@H]5CCCN5C(=O)[C@H](NC(=O)N5CCN(C)CC5)c5ccccc5)[nH]4)cc3)cc2)[nH]1)C(C)C", "note": "[Compound 989]", "EC50": "< 1"},
      {"smiles": "COC(=O)N[C@@H](Cc1c[nH]c2ccccc12)C(=O)N1CCC[C@H]1c1ncc(-c2ccc(C#Cc3ccc4nc([C@@H]5CCCN5C(=O)[C@H](Cc5c[nH]c6ccccc56)NC(=O)OC)[nH]c4c3)cc2)[nH]1", "note": "[Compound 1057]", "EC50": "< 1"},
      {"smiles": "CC[C@@H](C)[C@H](NC(=O)OC)C(=O)N1CCC[C@H]1c1ncc(-c2ccc(C#Cc3ccc4nc([C@@H]5CCCN5C(=O)[C@@H](NC(=O)OC)[C@H](C)CC)[nH]c4c3)cc2)[nH]1", "note": "[Compound 1024]", "EC50": "< 1"},
      {"smiles": "CC(C)[C@@H](C(=O)N1CCC[C@H]1c1ncc(-c2ccc(C#Cc3ccc(-c4cnc([C@@H]5CCCN5C(=O)[C@H](C(C)C)N5CCOC5=O)[nH]4)cc3)cc2)[nH]1)N1CCOC1=O", "note": "[Compound 1006]", "EC50": "10 to 999"},
      {"smiles": "CNC(=O)N[C@@H](C(=O)N1CCC[C@H]1c1ncc(-c2ccc(C#Cc3ccc(-c4cnc([C@@H]5CCCN5C(=O)[C@H](NC(=O)NC)c5ccccc5)[nH]4)cc3)cc2)[nH]1)c1ccccc1", "note": "[Compound 162]", "EC50": "< 1"},
      {"smiles": "CS(=O)(=O)N[C@@H](C(=O)N1CCC[C@H]1c1ncc(-c2ccc(C#Cc3ccc(-c4cnc([C@@H]5CCCN5C(=O)[C@@H](c5ccccc5)N5CCCCC5)[nH]4)cc3)cc2)[nH]1)c1ccccc1", "note": "[Compound 231]", "EC50": "< 1"},
      {"smiles": "COC(=O)N[C@@H](C(=O)N1CCC[C@H]1c1ncc(C#Cc2ccc(-c3ccc(-c4cnc([C@@H]5CCCN5C(=O)[C@@H](c5ccccc5)N5CCOCC5)[nH]4)cc3)cc2)[nH]1)c1ccccc1", "note": "[Compound 758]", "EC50": "< 1"},
      {"smiles": "COC(=O)N[C@@H](C(=O)N1CCC[C@H]1c1ncc(-c2ccc(C#Cc3ccc(-c4cnc([C@@H]5CCCN5C(=O)[C@H](NC(=O)N5CCC(O)CC5)c5ccccc5)[nH]4)cc3)cc2)[nH]1)c1ccccc1", "note": "[Compound 241]", "EC50": "< 1"},
      {"smiles": "C[C@H]1OC(=O)N[C@@H]1C(=O)N1CCC[C@H]1c1ncc(-c2ccc(C#Cc3ccc(-c4cnc([C@@H]5CCCN5C(=O)[C@H]5NC(=O)O[C@@H]5C)[nH]4)cc3)cc2)[nH]1", "note": "[Compound 979]", "EC50": "10 to 999"},
      {"smiles": "COC(=O)N[C@@H](C(=O)N1CCC[C@H]1c1ncc(-c2ccc(C#Cc3ccc(-c4cnc([C@@H]5CCCN5C(=O)[C@H](NC(=O)N5CCC[C@@H]5C)c5ccccc5)[nH]4)cc3)cc2)[nH]1)c1ccccc1", "note": "[Compound 261]", "EC50": "< 1"},
      {"smiles": "CC(C)[C@H](NC(=O)N1CCC(C)(O)CC1)C(=O)N1CCC[C@H]1c1ncc(-c2ccc(C#Cc3ccc(-c4cnc([C@@H]5CCCN5C(=O)[C@@H](NC(=O)N5CCC(C)(O)CC5)C(C)C)[nH]4)cc3)cc2)[nH]1", "note": "[Compound 966]", "EC50": "10 to 999"},
      {"smiles": "COC(=O)N[C@H](C(=O)N[C@@H](C)c1ncc(-c2ccc(C#Cc3ccc4nc([C@H](C)NC(=O)[C@@H](NC(=O)OC)C(C)C)[nH]c4c3)cc2)[nH]1)C(C)C", "note": "[Compound 868]", "EC50": "< 1"},
      {"smiles": "COC(=O)N[C@@H](C(=O)N1CCC[C@H]1c1ncc(C#Cc2ccc(C#Cc3cnc([C@@H]4CCCN4C(=O)[C@@H](c4ccccc4)N(C)C)[nH]3)cc2)[nH]1)c1ccccc1", "note": "[Compound 314]", "EC50": "< 1"},
      {"smiles": "COC(=O)NC(C(=O)N1CCC[C@H]1c1nc2ccc(C#Cc3ccc4cc(-c5cnc([C@@H]6CCCN6C(=O)[C@@H](NC(=O)OC)C(C)C)[nH]5)ccc4n3)cc2[nH]1)C(C)C", "note": "(some centres unmarked) [Compound 1107]", "EC50": "< 1"},
      {"smiles": "C[C@@H]1OC(=O)N[C@H]1C(=O)N1CCC[C@H]1c1ncc(-c2ccc(C#Cc3ccc(-c4cnc([C@@H]5CCCN5C(=O)[C@@H]5NC(=O)O[C@H]5C)[nH]4)cc3)cc2)[nH]1", "note": "[Compound 1000]", "EC50": "10 to 999"},
      {"smiles": "COC(=O)N[C@@H](C(=O)N1CCC[C@H]1c1ncc(-c2ccc(C#Cc3ccc(-c4cnc([C@@H]5CCCN5C(=O)C5CCN(C)CC5)[nH]4)cc3)cc2)[nH]1)c1ccccc1", "note": "[Compound 182]", "EC50": "< 1"},
      {"smiles": "COC(=O)N[C@@H](CC(=O)N1CCC[C@H]1c1ncc(-c2ccc(C#Cc3ccc4nc([C@@H]5CCCN5C(=O)C[C@H](NC(=O)OC)C(C)C)[nH]c4c3)cc2)[nH]1)C(C)C", "note": "[Compound 1064]", "EC50": "10 to 999"},
      {"smiles": "CN1CCN(C(=O)N[C@@H](C(=O)N2CCC[C@H]2c2cc(-c3ccc(C#Cc4ccc(-c5cnc([C@@H]6CCCN6C(=O)[C@H](NC(=O)N6CCN(C)CC6)c6ccccc6)[nH]5)cc4)cc3)n[nH]2)c2ccccc2)CC1", "note": "[Compound 213]", "EC50": "< 1"},
      {"smiles": "COC(=O)N[C@H](C(=O)N1CCC[C@H]1c1nc2ccc(C#Cc3ccc(-c4cnc([C@@H]5CCCN5C(=O)[C@H](c5ccccc5)N(C)C)[nH]4)cc3)cc2[nH]1)C(C)C", "note": "[Compound 864]", "EC50": "< 1"},
      {"smiles": "COC(=O)N[C@H](C(=O)N1CCC[C@H]1c1ncc(-c2ccc(C#Cc3ccc(-c4cnc([C@@H]5CCCN5C(=O)[C@H](C(C)C)N(C)C)[nH]4)cc3)cc2)[nH]1)C(C)C", "note": "[Compound 953]", "EC50": "1 to 9.9"},
      {"smiles": "COC(=O)NC(C(=O)N1CCC[C@H]1c1ncc(-c2ccc(C#Cc3ccc(-c4cnc([C@@H]5CCCN5C(=O)[C@H](NC(=O)OC)[C@H](C)O)[nH]4)cc3)cc2)[nH]1)[C@H](C)O", "note": "(some centres unmarked) [Compound 978]", "EC50": "10 to 999"},
      {"smiles": "CC(C)(C)OC(=O)N1CCC[C@H]1c1ncc(C#Cc2ccc(-c3cnc([C@@H]4CCCN4C(=O)OC(C)(C)C)[nH]3)cc2)[nH]1", "note": "[Compound 101]", "EC50": "10 to 999"},
      {"smiles": "COC(=O)N[C@H](C(=O)N1CCC[C@H]1c1ncc(C#Cc2ccc3cc(-c4cnc([C@@H]5CCCN5C(=O)[C@@H](NC(=O)OC)C5CCOCC5)[nH]4)ccc3c2)[nH]1)C1CCOCC1", "note": "[Compound 1080]", "EC50": "< 1"},
      {"smiles": "O=C(N[C@@H](C(=O)N1CCC[C@H]1c1ncc(-c2ccc(C#Cc3ccc(-c4cnc([C@@H]5CCCN5C(=O)[C@H](NC(=O)C5CC5)c5ccccc5)[nH]4)cc3)cc2)[nH]1)c1ccccc1)C1CC1", "note": "[Compound 153]", "EC50": "< 1"},
      {"smiles": "C[C@H](NC(=O)[C@@H]1CCCN1C(=O)[C@H](NC(=O)C1CC1)c1ccccc1)c1ccc(C#Cc2ccc(-c3cnc([C@@H]4CCCN4C(=O)[C@H](NC(=O)C4CC4)c4ccccc4)[nH]3)cc2)cc1", "note": "[Compound 191]", "EC50": "< 1"}
    ]},
    {"tested_on": "HCV 1b_Huh-Luc/Neo-ET cell line persistently expressing a bicistronic genotype 1b replicon in Huh 7 cells", "experiment": "HCV replicon assay (luciferase readout, 72 h)", "type": "cell-based, HCV genotype 1b", "details": "Hepatitis C virus, Huh-7, read-out: Inhibition of HCV genotype 1b", "how_it_was_run": "as §1", "units": {"EC50": "nM"}, "values": [
      {"smiles": "COC(=O)N[C@H](C(=O)N1CCC[C@H]1c1nc(C(F)(F)F)c(C#Cc2ccc3cc(-c4cnc([C@@H]5CCCN5C(=O)[C@@H](NC(=O)OC)[C@@H](C)OC)[nH]4)ccc3c2)[nH]1)C(C)C", "note": "[Compound 1261]", "EC50": "< 1"},
      {"smiles": "CC[C@H](C)C(NC(=O)OC)C(=O)N1CCC[C@H]1c1nc2ccc(C#Cc3ccc(-c4cnc([C@@H]5CCCN5C(=O)[C@@H](NC(=O)OC)[C@@H](C)OC)[nH]4)cc3)cc2[nH]1", "note": "(some centres unmarked) [Compound 1246]", "EC50": "< 1"},
      {"smiles": "COC(=O)N[C@H](C(=O)N1CCC[C@H]1c1ncc(-c2ccc3cc(C#Cc4[nH]c([C@@H]5CCCN5C(=O)[C@@H](NC(=O)OC)[C@@H](C)OC)nc4C(F)(F)F)ccc3c2)[nH]1)C(C)C", "note": "[Compound 1258]", "EC50": "< 1"},
      {"smiles": "COC(=O)N[C@H](C(=O)N1CCC[C@H]1c1ncc(-c2ccc(C#Cc3ccc4c(ccc5nc([C@@H]6CCCN6C(=O)[C@@H](NC(=O)OC)C6CCOCC6)[nH]c54)c3)cc2)[nH]1)C(C)C", "note": "[Compound 1272]", "EC50": "< 1"},
      {"smiles": "COC(=O)N[C@H](C(=O)N1CCC[C@H]1CNC(=O)c1ccc(C#Cc2ccc3nc([C@@H]4CCCN4C(=O)[C@@H](NC(=O)OC)C(C)C)[nH]c3c2)cc1)C(C)C", "note": "[Compound 1238]", "EC50": "< 1"},
      {"smiles": "COC(=O)N[C@@H](C(=O)N1CCC[C@H]1c1ncc(-c2ccc(C#Cc3ccc4nc([C@@H]5CCCN5C(=O)[C@H](NC(=O)OC)c5ccccc5)[nH]c4c3)cc2F)[nH]1)c1ccccc1", "note": "[Compound 1222]", "EC50": "< 1"},
      {"smiles": "COC(=O)N[C@H](C(=O)N1CCC[C@H]1CNC(=O)c1ccc(C#Cc2ccc3nc([C@@H]4CCCN4C(=O)[C@@H](NC(=O)OC)C(C)C)[nH]c3c2)cn1)C(C)C", "note": "[Compound 1240]", "EC50": "10 to 999"},
      {"smiles": "COC(=O)N[C@H](C(=O)N1CCC[C@H]1c1ncc(-c2ccc3cc(C#Cc4[nH]c([C@@H]5CCCN5C(=O)[C@@H](NC(=O)OC)C(C)C)nc4C#N)ccc3c2)[nH]1)C(C)C", "note": "[Compound 1257]", "EC50": "< 1"}
    ]}
  ]
}
